According to patent US9573907B2, “2, 4-pyrimidine derivatives and use thereof” (SNU R&DB FOUNDATION, priority 2009, dated 2017):

Legend:
[1] = biological target: interaction of gp96 and AIMP1 (Mus musculus, UniProt P08113); assay: ELISA assay of gp96-AIMP1 interaction; type: binding, murine
Procedure: FIGS. 1 to 9 represent suppression of cell surface gp96 by GPM1 reduces DC maturation and B220^+ population in gp96tm transgenic mice. (FIG. 1) Chemical structure of GPM1 (Formula 2) and negative control (NC1, Formula 16) used in this study. (FIG. 2) The dose-dependent effect of GPM1 or NC1 on the AIMP1-gp96 interaction using ELISA method as described. The indicated concentrations of the two compounds and biotin-conjugated murine gp96 were added to AIMP1 coated on the surface of microtiter wells, and gp96 bound to AIMP1 was detected with strepavidin-conjugated peroxidase. (FIG. 3) The binding of GPM1 to gp96 was examined by surface plasmon resonance (SPR). GPM1 at the indicated concentrations was injected to immobilized gp96 and the binding was measured using Biacore 3000. The response data were processed using data from a reference surface and buffer injections. Each concentration was tested in triplicate. (FIG. 4) RAW24.7 cells were treated with 10 μM GPM1 for 24 h. Cell lysates were immunoprecipitated with control IgG or anti-gp96 antibody and the immunoprecipitated proteins were immunoblotted with anti-KDELR1, antiAIMP1 and gp96 antibodies. WCL means whole cell lysate. (FIG. 5) Splenocytes isolated from C57BL/6 mice were treated with vehicle (5% DMSO in PBS), GPM1, or NC1 (10 μM, 24 h), stained for cell surface gp96, and followed by flow cytometry. (FIG. 6) AIMP1^+/+ or AIMP1^−/− mouse splenocytes (2×10^5 cells) were treated with vehicle, GPM1, or NC1 (10 μM, 24 h), fixed, and then co-cultured with WT bone marrow-derived DCs (1×10^4 cells) for 16 h. TNFα secreted from BMDCs was quantified by ELISA. (FIG. 7) Percentage of gp96^+ MHC class II^+ cell population in splenocytes from gp96tm transgenic female mice treated with vehicle (control) (n=9), GPM1 (n=9), and dexamethasone (n=7) at 30 mg/kg. (FIG. 8) Cell surface ICOSL of CD11b^+CD11c^+ (myeloid DCs), CD11b^−CD11c^+ (lymphoid DCs), and CD11b^+CD11c^− (macrophages) cell populations in splenocytes from gp96tm transgenic female mice treated with vehicle (n=9) and GPM1 (n=9) at 30 mg/kg. (FIG. 9) Percentage of B220^+, MHC class II^+, CD4^+, CD8^+, CD4 and CD8 double negative cell populations in splenocytes from gp96tm transgenic female mice treated with vehicle (n=9), GPM1 (n=9), and dexamethasone (n=7) at 30 mg/kg. Student t-test P values comparing GPM1-treated mice with control are indicated.
96-well plates (Maxisorp., F96; Nunc) were coated with 500 ng/well AIMP1 in PBS (pH 7.4). After washing, the remaining sites were blocked with PBS containing 1% BSA for 1 h. Binding of 10 ng/well biotin-conjugated gp96 was performed in Tris buffer (25 mM Tris, 10 mM NaCl and 0.4% Triton X-100). Each of the 6,580 compounds was added to the well at 100 nM and the plates were washed and incubated with HRP conjugated streptavidin in PBS containing 0.1% BSA and 0.1% Tween 20 for 30 min. The plates were washed, and then substrate was added to each well. The absorbance was monitored at 450 nm.
To identify chemicals that can affect membrane translocation of gp96, the present inventors employed the interaction of gp96 with AIMP1 as the screening target. For this screening, the present inventors chose 6,482 chemicals with different pharmacophore representing 150,000 different chemicals deposited in Korea Chemical Bank and identified the compounds that can inhibit the interaction of the two proteins. For the screening, the present inventors set up a modified ELISA method using recombinant AIMP1 and gp96 proteins as described in Experimental methods. Each of the tested compounds gave different effect on the interaction of the two proteins (FIG. 19). And the present inventors have selected 12 compounds that inhibited the interaction more than 95% of the control at 0.1 μM (Table 1). The present inventors obtained 1251 additional compounds derived from these 12 initial hits and tested them again for their activities against the gp96-AIMP1 interaction.

[2] = biological target: T1, interaction of gp96 with KDELR1 (Mus musculus, UniProt P08113); assay: Co-immunoprecipitation of gp96 with KDELR1 in RAW24.7 cells; type: cell-based; conditions: 10 μM, 24 h
T1 construct: endogenous in cells; host or cells: RAW24.7 (RAW264.7) cells
Procedure: FIGS. 1 to 9 represent suppression of cell surface gp96 by GPM1 reduces DC maturation and B220^+ population in gp96tm transgenic mice. (FIG. 1) Chemical structure of GPM1 (Formula 2) and negative control (NC1, Formula 16) used in this study. (FIG. 2) The dose-dependent effect of GPM1 or NC1 on the AIMP1-gp96 interaction using ELISA method as described. The indicated concentrations of the two compounds and biotin-conjugated murine gp96 were added to AIMP1 coated on the surface of microtiter wells, and gp96 bound to AIMP1 was detected with strepavidin-conjugated peroxidase. (FIG. 3) The binding of GPM1 to gp96 was examined by surface plasmon resonance (SPR). GPM1 at the indicated concentrations was injected to immobilized gp96 and the binding was measured using Biacore 3000. The response data were processed using data from a reference surface and buffer injections. Each concentration was tested in triplicate. (FIG. 4) RAW24.7 cells were treated with 10 μM GPM1 for 24 h. Cell lysates were immunoprecipitated with control IgG or anti-gp96 antibody and the immunoprecipitated proteins were immunoblotted with anti-KDELR1, antiAIMP1 and gp96 antibodies. WCL means whole cell lysate. […] TNFα secreted from BMDCs was quantified by ELISA. […]

T1 sequence (P08113 22-802): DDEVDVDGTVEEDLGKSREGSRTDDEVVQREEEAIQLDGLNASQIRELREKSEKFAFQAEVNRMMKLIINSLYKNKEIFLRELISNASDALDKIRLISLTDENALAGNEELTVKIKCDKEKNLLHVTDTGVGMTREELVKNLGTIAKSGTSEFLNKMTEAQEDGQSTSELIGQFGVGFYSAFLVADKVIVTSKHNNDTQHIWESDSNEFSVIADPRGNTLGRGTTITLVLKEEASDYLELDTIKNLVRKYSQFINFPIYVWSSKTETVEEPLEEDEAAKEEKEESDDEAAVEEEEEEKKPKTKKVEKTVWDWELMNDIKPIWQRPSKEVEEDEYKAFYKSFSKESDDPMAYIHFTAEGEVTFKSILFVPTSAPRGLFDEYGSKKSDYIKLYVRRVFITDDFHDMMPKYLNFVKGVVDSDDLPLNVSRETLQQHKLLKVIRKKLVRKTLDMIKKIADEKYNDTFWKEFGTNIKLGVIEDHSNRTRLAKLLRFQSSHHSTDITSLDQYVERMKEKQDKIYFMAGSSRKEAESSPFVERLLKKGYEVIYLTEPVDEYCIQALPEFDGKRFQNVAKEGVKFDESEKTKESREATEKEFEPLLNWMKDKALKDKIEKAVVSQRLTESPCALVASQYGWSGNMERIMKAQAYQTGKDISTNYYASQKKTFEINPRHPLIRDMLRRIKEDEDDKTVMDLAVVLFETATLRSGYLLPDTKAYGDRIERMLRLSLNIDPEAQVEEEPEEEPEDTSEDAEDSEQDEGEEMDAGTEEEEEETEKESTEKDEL
interaction of gp96 and AIMP1, sequence (P08113 22-802): as above

Structure (SMILES): COC(=O)[C@@H](Oc1nc(OC)cc(OC)n1)C(C)C [GPM1, (S)-methyl 2-(4,6-dimethoxypyrimidin-2-yloxy)-3-methylbutanoate]
- IC50 ([1]; dose-dependent effect, ELISA, read-out: 50% inhibition of the interaction of gp96 and AIMP1): ~30 nM
- inhibition at 0.1 µM ([1]; read-out: Inhibition rate (at 100 nM; %)): 95%
- interaction of gp96 with KDELR1 ([2]; RAW24.7 cells, co-immunoprecipitation): increased
- cellular levels of gp96, KDER1 and AIMP1 ([2]; whole cell lysate): did not affect
